The source made the active and inactive calls.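 Rule for the calls: active = at least two of three replicate dose series yielding a converging curve fit, whether well or thinly supported; inactive = the rest.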
Biological target: D(1A) dopamine receptor (Homo sapiens) (UniProt P21728)
Assay: D1 receptor modulation with EC30 dopamine, dose response, D1 allosteric modulator project, cell-based, CRE-luciferase, HEK293 (AID 858);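 note: HEK 293 cells bearing human D1 receptor stimulated by dopamine at its EC30; luciferase light from a cAMP response element reporter gene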

Sequence of D(1A) dopamine receptor (Homo sapiens) (P21728 whole entry, looked up): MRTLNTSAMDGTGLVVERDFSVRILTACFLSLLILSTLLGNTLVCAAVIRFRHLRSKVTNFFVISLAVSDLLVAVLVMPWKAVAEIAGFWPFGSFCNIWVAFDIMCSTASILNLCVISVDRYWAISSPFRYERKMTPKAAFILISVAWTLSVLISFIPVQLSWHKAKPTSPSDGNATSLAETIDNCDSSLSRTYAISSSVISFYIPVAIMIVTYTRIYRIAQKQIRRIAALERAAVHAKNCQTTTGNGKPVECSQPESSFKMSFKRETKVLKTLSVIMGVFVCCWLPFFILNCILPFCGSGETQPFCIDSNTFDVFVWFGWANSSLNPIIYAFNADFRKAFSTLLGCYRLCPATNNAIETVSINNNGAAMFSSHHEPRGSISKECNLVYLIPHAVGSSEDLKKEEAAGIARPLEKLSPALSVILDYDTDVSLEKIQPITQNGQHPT

Row | SMILES | outcome | EC50 [nM]
1 | CCCCn1c2nc3ccccc3nc2c2c(=O)n(C(C)CC)cnc21 (stereo not drawn) | inactive | 
2 | C=CCn1c(=S)[nH]c2nc3c(cc2c1=O)CCCC3 | inactive | 
3 | CCCCn1c(=O)c(C(=O)Nc2cnccn2)c(O)c2ccccc21 | inactive | 
4 | Cn1c(=O)c2c(-c3ccccc3)n(N3CCOCC3)cc2n(C)c1=O | inactive | 
5 | Cc1cccc(Cc2c(C)nc3c(C(=O)NCc4ccco4)cnn3c2C)c1 | inactive | 
6 | CCSC(C)CC1C/C(=N/O)c2c(CC)noc2C1 (stereo not drawn) | inactive | 
7 | CCC(Sc1nc(=O)cc(N)n1CCc1ccccc1)C(=O)Nc1ccccc1C#N (stereo not drawn) | inactive | 
8 | O=C(NCc1ccco1)c1cnn2c(C(F)(F)F)cc(-c3ccco3)nc12 | inactive | 
9 | COC(=O)c1ccc(C(=O)OC)c(NC(=O)COC(=O)C23CC4CC(CC(O)(C4)C2)C3)c1 | inactive | 
10 | COc1ccc(C2CC(c3cc(OC)ccc3OC)n3nnnc3N2)cc1 (stereo not drawn) | inactive | 
11 | CC1(C)CC(=O)C2=C(C1)OC(N)=C(C#N)C2c1cccc(OC(=O)c2ccco2)c1 (stereo not drawn) | inactive | 
12 | O=C(CSc1nc2ccccc2s1)NC(=O)NCc1ccco1 | inactive | 
13 | COC(=O)c1cc(=O)n(Cc2ccco2)c(=Nc2ccc(F)c(Cl)c2)s1 | inactive | 
14 | Cn1c(=O)c2c(nc(SCCCO)n2Cc2ccccc2Cl)n(C)c1=O | inactive | 
15 | COc1ccc2c(c1)C(=O)N(c1ccccc1OC)C(=O)C2(C)C | inactive | 
16 | CCC(=O)n1nc(-c2cccnc2)nc1NCc1ccc(OC)cc1 | inactive | 
17 | COc1ccc(OC)c(C2=NOC(C(=O)Nc3cccc(C(C)=O)c3)C2)c1 (stereo not drawn) | inactive | 
18 | Cc1cc(C)n(-c2nc3ccccc3nc2Nc2ccc(CC(=O)O)cc2)n1 | inactive | 
19 | CSc1nc2oc3c(c2c2nncn12)CC(C)(C)SC3 | inactive | 
20 | O=C(CCCc1nc2ccccc2s1)N1CCN(S(=O)(=O)c2cccs2)CC1 | inactive | 
21 | O=C1COc2ccccc2N1Cc1ccccc1Cl | inactive | 
22 | COc1ccc(S(=O)(=O)Nc2ccc3c(c2)OCO3)cc1OC | inactive | 
23 | Cc1cc(-c2ccccc2)c(C#N)c(SCC(N)=O)n1 | inactive | 
24 | Cc1cc(C)nc(SCC(=O)Nc2ncc3c(n2)CC(C)(C)CC3=O)n1 | inactive | 
25 | c1ccc2c(c1)nc(NCC1CCCO1)c1nnnn12 (stereo not drawn) | inactive | 
26 | CCN(CC)CCOc1c(Br)ccc2c1sc1nc3n(c(=O)c12)CCC3 | inactive | 

Row | SMILES | outcome | EC50 [nM]
27 | CC(=O)N1CCC2(CC1)C(C#N)=C(N)Oc1c2sc2nc(C)cc(C)c12 | inactive | 
28 | CCOC(=O)c1c(C2CC2)csc1NC(C)=O | inactive | 
29 | NC(=O)c1c(NC(=O)CSc2nnc(-c3ccco3)n2-c2ccccc2)sc2c1CCC2 | inactive | 
30 | CCOc1ccccc1C1NC(=O)NC(C)=C1C(=O)OC1CCCCC1 (stereo not drawn) | inactive | 
31 | C=C(C)CSc1nc2c(cc1C#N)CCC2 | inactive | 
32 | Cc1ccc2c(c1)-c1c(ssc1=S)C(C)(C)N2C(=O)CSc1nncn1C | inactive | 
33 | CCOC(=O)c1ccc(Oc2cc(C)nc(SC)n2)cc1 | inactive | 
34 | COc1ccc(-c2coc3cc(O)ccc3c2=O)cc1OC | inactive | 
35 | N#CC1=C(N)Oc2n[nH]c(-c3cccs3)c2C1c1ccsc1 (stereo not drawn) | inactive | 
36 | CC(C)Cn1c(=O)c2c(c3ccccc31)OC(C)C(=O)N2 (stereo not drawn) | inactive | 
37 | CC(C)C1C2=C(CC(C)(C)CC2=O)ON1c1ccccc1 (stereo not drawn) | inactive | 
38 | CSC1=NCCN1C(=O)Cc1cccs1 | inactive | 
39 | Nc1nc(CN2CCN(c3ccccn3)CC2)nc(Nc2ccc(Cl)cc2)n1 | inactive | 
40 | Cc1cc(=O)c2n(Cc3ccc(Cl)cc3)nc[n+]2[nH]1 | inactive | 
41 | CCCn1c(=O)c2ccccc2n2c(SCc3nc4ccccc4s3)nnc12 | inactive | 
42 | COc1ccc(Cc2nnc(NC(=O)c3c(-c4ccccc4)noc3C)s2)cc1 | inactive | 
43 | CCOC(=O)c1oc2ccc(Br)cc2c1NC(=O)CN1CCN(C)CC1 | inactive | 
44 | CCn1ncc(C2=NOC(C(=O)Nc3ccc4c(c3)OCO4)C2)c1C (stereo not drawn) | inactive | 
45 | CCOC(=O)CSc1nc2c(sc(=S)n2Cc2ccco2)c(=O)n1-c1ccccc1 | inactive | 
46 | Cc1cc(-n2nc(C)cc2C)nc(NS(=O)(=O)c2ccccc2)n1 | inactive | 
47 | Cc1cc(SCC(=O)N2CCC(c3noc4ccc(F)cc34)CC2)nc2ccccc12 | inactive | 
48 | CCOC(=O)c1cc2c(=O)n3ccccc3nc2n(CCCOC)c1=NC(=O)C(C)(C)C | inactive | 
49 | CCOC(=O)c1nn(-c2ccccc2C)c(=O)c(C#N)c1C | inactive | 
50 | Cc1c(C)c2ccc(OC3CCCCC3=O)cc2oc1=O (stereo not drawn) | inactive | 
51 | CCc1nc2sc3ccccc3c(=O)c2c(=O)n1Cc1ccco1 | inactive | 
52 | CC(=O)c1cc(C#N)c(SCC(=O)OC(C)(C)C)nc1C | inactive | 

Row | SMILES | outcome | EC50 [nM]
53 | CC(C)Cn1c(=O)c(C(=O)Nc2cnccn2)c(O)c2ccccc21 | inactive | 
54 | COc1ccc(C2CC(=O)Nc3ccccc3S2(=O)=O)cc1OC (stereo not drawn) | inactive | 
55 | C=CCNc1sc(C(=O)C(C)(C)C)c(N)c1C#N |  | 1140
56 | CCCCNC(=O)c1ccc2nc(-c3ccco3)c(-c3ccco3)nc2c1 | inactive | 
57 | N#Cc1cc2ccccc2nc1SCC(=O)Nc1ccc(S(=O)(=O)N2CCCC2)cc1 | inactive | 
58 | CCn1c(=O)c(C(=O)NCc2cccnc2)c(O)c2ccccc21 | inactive | 
59 | CCn1c(SCC(=O)Nc2ccccc2N2CCCCC2)nc2c1c(=O)n(C)c(=O)n2C | inactive | 
60 | CCCCn1c(=NC(=O)c2ccco2)c(C(=O)OCC)cc2c(=O)n3ccccc3nc21 | inactive | 
61 | CCCCn1c(=NC(=O)c2cccnc2)c(C(=O)OCC)cc2c(=O)n3ccccc3nc21 |  | 2020
62 | COc1cccc(NC2=NCC(=O)N2Cc2cccs2)c1 | inactive | 
63 | CSC1=NCCN1C(=O)c1ccc(Br)o1 | inactive | 
64 | COc1ccc(CCN(C)C(=O)C2CCCN(Cc3ccc(OC)c(OC)c3)C2)cc1OC (stereo not drawn) | inactive | 
65 | CC(C)OC(=O)CSc1nnc(-c2cnccn2)n1-c1ccc(Cl)cc1 | inactive | 
66 | O=C1C(Cl)=C(NCC2CCCO2)C(=O)N1C1CCCCC1 (stereo not drawn) | inactive | 
67 | CCCNc1nc2c(c(=O)[nH]c(=O)n2C)n1CCc1ccccc1 | inactive | 
68 | COC(=O)Nc1ccc2c(c1)N(C(=O)CCN1CCOCC1)c1ccccc1S2 | inactive | 
69 | CCCn1c(=NC(C)=O)c(C(=O)OCC)cc2c(=O)n3ccccc3nc21 | inactive | 
70 | CCSc1cnc(-c2ccccc2)n1CC | inactive | 
71 | O=c1c2cc(Cl)ccc2[nH]c(=S)n1Cc1ccco1 | inactive | 
72 | COC(=O)c1cc(NC(=O)CSc2nc(C)cc(=O)[nH]2)cc(C(=O)OC)c1 | inactive | 
73 | CC(=O)C1=C(C)NC(SCC(=O)c2ccc(F)cc2)=C(C#N)C1c1ccco1 (stereo not drawn) | inactive | 
74 | CCC(C)Nc1nc(OC)nc(N(C)C#N)n1 (stereo not drawn) | inactive | 
75 | CCN1C(=O)c2cccc3c(S(=O)(=O)Nc4ccccn4)ccc1c23 | inactive | 
76 | Cc1onc(-c2ccccc2)c1C(=O)Nc1ccc2c(c1)OCO2 | inactive | 
77 | Cc1cc(C)c(C#N)c(SCc2ccc(C#N)cc2)n1 | inactive | 
78 | NC(=O)c1cc(-c2ccccc2)nc(N2CCCCCC2)n1 | inactive | 

— PubChem BioAssay AID858 (Vanderbilt High Throughput Screening Facility, 2007)
